Data: patent US20050229276A1, “Method of producing cyclamen root tuber and method of proliferating cyclamen using the same” (Tokyo University of Agricultural, priority 2002, published 2005)

Tested on: cyclamen (cultivar: Dressy Scarlet) seedling
Assay: Growth of root tubers at cut root ends of seedlings in solid media
Assay type: in vivo
Description: A cyclamen (cultivar: Dressy Scarlet) seed was immersed in an ethyl alcohol aqueous solution having an ethyl alcohol concentration of 70 wt % for 10 seconds and in a sodium hypochlorite solution having an effective chlorine concentration of 1 wt % for 10 minutes to sterilize the surface of the seed. Thereafter, this seed was washed in sterilized water 3 times to remove the sodium hypochlorite from the surface of the seed. This was sown in an MS solid medium containing 30 g/l of sucrose and 6 g/l of agar under a germ-free condition and cultured at a temperature of 20° C. under weak light for 30 days to be germinated and rooted.
The end portions of the roots of the above germinated and rooted cyclamen seedling were cut off with a scalpel, and the seedling was planted in the following solid media. As the media, a large number of experimental plots were prepared by adding NAA and BA as phytohormones to the ⅓ MS medium in concentrations shown in Tables 1 to 3 and further adding 30 to 90 g/l of sucrose. 6 g/l of agar was added to all of the media which were then sterilized in an autoclave to prepare media having a pH of 7.0. 10 ml of each of the solid media was placed in a 50 ml culture test tube. The stationary culture of the seedling planted in each of the media was carried out at 20° C. under weak light for a certain number of days to grow root tubers at the end portions of its roots.

[1] = sucrose 30 g/l, BA 0.1 mg/l, NAA 0.00 mg/l, 30-th day
[2] = sucrose 30 g/l, BA 0.1 mg/l, NAA 0.01 mg/l, 30-th day
[3] = sucrose 30 g/l, BA 0.1 mg/l, NAA 0.05 mg/l, 30-th day
[4] = sucrose 30 g/l, BA 1.0 mg/l, NAA 0.00 mg/l, 30-th day
[5] = sucrose 30 g/l, BA 1.0 mg/l, NAA 0.01 mg/l, 30-th day
[6] = sucrose 30 g/l, BA 1.0 mg/l, NAA 0.05 mg/l, 30-th day
[7] = sucrose 30 g/l, BA 10.0 mg/l, NAA 0.00 mg/l, 30-th day
[8] = sucrose 30 g/l, BA 10.0 mg/l, NAA 0.01 mg/l, 30-th day
[9] = sucrose 30 g/l, BA 10.0 mg/l, NAA 0.05 mg/l, 30-th day
[10] = sucrose 50 g/l, BA 0.1 mg/l, NAA 0.00 mg/l, 30-th day
[11] = sucrose 50 g/l, BA 0.1 mg/l, NAA 0.01 mg/l, 30-th day
[12] = sucrose 50 g/l, BA 0.1 mg/l, NAA 0.05 mg/l, 30-th day
[13] = sucrose 50 g/l, BA 1.0 mg/l, NAA 0.00 mg/l, 30-th day
[14] = sucrose 50 g/l, BA 1.0 mg/l, NAA 0.01 mg/l, 30-th day
[15] = sucrose 50 g/l, BA 1.0 mg/l, NAA 0.05 mg/l, 30-th day
[16] = sucrose 50 g/l, BA 10.0 mg/l, NAA 0.00 mg/l, 30-th day
[17] = sucrose 50 g/l, BA 10.0 mg/l, NAA 0.01 mg/l, 30-th day

c1ccc(CNc2ncnc3[nH]cnc23)cc1 [BA, benzylaminopurine]
Number of grown root tubers (BA 0.0 mg/l, sucrose 30 g/l, NAA 0.05 mg/l, 23 roots cut off, 30-th day): 23
Enlarging ratio (diameter of root tuber vs root at start = 1) (BA 0.0 mg/l, sucrose 30 g/l, NAA 0.05 mg/l, 30-th day): 8.4
Number of grown root tubers (BA 0.1 mg/l, sucrose 30 g/l, NAA 0.05 mg/l, 17 roots cut off, 30-th day): 17
Enlarging ratio (diameter of root tuber vs root at start = 1) (BA 0.1 mg/l, sucrose 30 g/l, NAA 0.05 mg/l, 30-th day): 2.3
Number of grown root tubers (BA 0.1 mg/l, sucrose 50 g/l, NAA 0.05 mg/l, 17 roots cut off, 30-th day): 16
Enlarging ratio (diameter of root tuber vs root at start = 1) (BA 0.1 mg/l, sucrose 50 g/l, NAA 0.05 mg/l, 30-th day): 3.2
Number of grown root tubers (BA 0.1 mg/l, sucrose 70 g/l, NAA 0.05 mg/l, 21 roots cut off, 30-th day): 21
Enlarging ratio (diameter of root tuber vs root at start = 1) (BA 0.1 mg/l, sucrose 70 g/l, NAA 0.05 mg/l, 30-th day): 3.8
Number of grown root tubers (BA 0.1 mg/l, sucrose 90 g/l, NAA 0.05 mg/l, 18 roots cut off, 30-th day): 18
Enlarging ratio (diameter of root tuber vs root at start = 1) (BA 0.1 mg/l, sucrose 90 g/l, NAA 0.05 mg/l, 30-th day): 5.0
Number of grown root tubers (BA 0.5 mg/l, sucrose 30 g/l, NAA 0.05 mg/l, 20 roots cut off, 30-th day): 20
Enlarging ratio (diameter of root tuber vs root at start = 1) (BA 0.5 mg/l, sucrose 30 g/l, NAA 0.05 mg/l, 30-th day): 6.6
Number of grown root tubers (BA 0.5 mg/l, sucrose 50 g/l, NAA 0.05 mg/l, 21 roots cut off, 30-th day): 20
Enlarging ratio (diameter of root tuber vs root at start = 1) (BA 0.5 mg/l, sucrose 50 g/l, NAA 0.05 mg/l, 30-th day): 9.5
Number of grown root tubers (BA 0.5 mg/l, sucrose 70 g/l, NAA 0.05 mg/l, 25 roots cut off, 30-th day): 25
Enlarging ratio (diameter of root tuber vs root at start = 1) (BA 0.5 mg/l, sucrose 70 g/l, NAA 0.05 mg/l, 30-th day): 7.2
Number of grown root tubers (BA 0.5 mg/l, sucrose 90 g/l, NAA 0.05 mg/l, 16 roots cut off, 30-th day): 16
Enlarging ratio (diameter of root tuber vs root at start = 1) (BA 0.5 mg/l, sucrose 90 g/l, NAA 0.05 mg/l, 30-th day): 6.0
Number of grown root tubers (BA 1.0 mg/l, sucrose 50 g/l, NAA 0.05 mg/l, 24 roots cut off, 30-th day): 23
Enlarging ratio (diameter of root tuber vs root at start = 1) (BA 1.0 mg/l, sucrose 50 g/l, NAA 0.05 mg/l, 30-th day): 6.3
Number of grown root tubers (BA 1.0 mg/l, sucrose 70 g/l, NAA 0.05 mg/l, 17 roots cut off, 30-th day): 17
Enlarging ratio (diameter of root tuber vs root at start = 1) (BA 1.0 mg/l, sucrose 70 g/l, NAA 0.05 mg/l, 30-th day): 5.4
Number of grown root tubers (BA 1.0 mg/l, sucrose 90 g/l, NAA 0.05 mg/l, 4 roots cut off, 30-th day): 3
Enlarging ratio (diameter of root tuber vs root at start = 1) (BA 1.0 mg/l, sucrose 90 g/l, NAA 0.05 mg/l, 30-th day): 3.8
Number of large root tubers (diameter of 1 mm or more) [1]: 4
Total number of root tubers [1]: 18
Number of large root tubers (diameter of 1 mm or more) [2]: 5
Total number of root tubers [2]: 15
Number of large root tubers (diameter of 1 mm or more) [3]: 5
Total number of root tubers [3]: 15
Number of large root tubers (diameter of 1 mm or more) [4]: 2
Total number of root tubers [4]: 6
Number of large root tubers (diameter of 1 mm or more) [5]: 3
Total number of root tubers [5]: 5
Number of large root tubers (diameter of 1 mm or more) [6]: 6
Total number of root tubers [6]: 7
Number of large root tubers (diameter of 1 mm or more) [7]: 6
Total number of root tubers [7]: 11
Number of large root tubers (diameter of 1 mm or more) [8]: 5
Total number of root tubers [8]: 5
Number of large root tubers (diameter of 1 mm or more) [9]: 4
Total number of root tubers [9]: 8
Number of large root tubers (diameter of 1 mm or more) [10]: 1
Total number of root tubers [10]: 2
Number of large root tubers (diameter of 1 mm or more) [11]: 0
Total number of root tubers [11]: 1
Average number of root tubers (per a seedling) [12]: 2.8
Number of large root tubers (diameter of 1 mm or more) [12]: 7
Total number of root tubers [12]: 14
Average number of root tubers (per a seedling) (sucrose 50 g/l, BA 0.1 mg/l, NAA 0.05 mg/l, 50-th day): 2.8
Number of large root tubers (diameter of 1 mm or more) [13]: 11
Total number of root tubers [13]: 16
Number of large root tubers (diameter of 1 mm or more) [14]: 11
Total number of root tubers [14]: 16
Average number of root tubers (per a seedling) [15]: 4.8
Number of large root tubers (diameter of 1 mm or more) [15]: 4
Total number of root tubers [15]: 9
Average number of root tubers (per a seedling) (sucrose 50 g/l, BA 1.0 mg/l, NAA 0.05 mg/l, 50-th day): 4.8
Average number of root tubers (per a seedling) (sucrose 50 g/l, BA 2.0 mg/l, NAA 0.05 mg/l, 30-th day): 0.6
Average number of root tubers (per a seedling) (sucrose 50 g/l, BA 2.0 mg/l, NAA 0.05 mg/l, 50-th day): 0.6
Average number of root tubers (per a seedling) (sucrose 50 g/l, BA 5.0 mg/l, NAA 0.05 mg/l, 30-th day): 1.8
Average number of root tubers (per a seedling) (sucrose 50 g/l, BA 5.0 mg/l, NAA 0.05 mg/l, 50-th day): 1.8
Number of large root tubers (diameter of 1 mm or more) [16]: 6
Total number of root tubers [16]: 7
Number of large root tubers (diameter of 1 mm or more) [17]: 3
Total number of root tubers [17]: 10
